Laboratory results from ChEMBL document CHEMBL1125859, “Synthesis and evaluation of antiinflammatory activities of a series of corticosteroid 17 alpha-esters containing a functional group” (J Med Chem, 1991).

Legend:
Glucocorticoid receptor = molecular target: T1, Glucocorticoid receptor (Rattus norvegicus, UniProt P06536); experiment: Competitive displacement of [3H]dexamethasone from glucocorticoid receptor of rat liver cytosol
T1 sequence (P06536 whole entry): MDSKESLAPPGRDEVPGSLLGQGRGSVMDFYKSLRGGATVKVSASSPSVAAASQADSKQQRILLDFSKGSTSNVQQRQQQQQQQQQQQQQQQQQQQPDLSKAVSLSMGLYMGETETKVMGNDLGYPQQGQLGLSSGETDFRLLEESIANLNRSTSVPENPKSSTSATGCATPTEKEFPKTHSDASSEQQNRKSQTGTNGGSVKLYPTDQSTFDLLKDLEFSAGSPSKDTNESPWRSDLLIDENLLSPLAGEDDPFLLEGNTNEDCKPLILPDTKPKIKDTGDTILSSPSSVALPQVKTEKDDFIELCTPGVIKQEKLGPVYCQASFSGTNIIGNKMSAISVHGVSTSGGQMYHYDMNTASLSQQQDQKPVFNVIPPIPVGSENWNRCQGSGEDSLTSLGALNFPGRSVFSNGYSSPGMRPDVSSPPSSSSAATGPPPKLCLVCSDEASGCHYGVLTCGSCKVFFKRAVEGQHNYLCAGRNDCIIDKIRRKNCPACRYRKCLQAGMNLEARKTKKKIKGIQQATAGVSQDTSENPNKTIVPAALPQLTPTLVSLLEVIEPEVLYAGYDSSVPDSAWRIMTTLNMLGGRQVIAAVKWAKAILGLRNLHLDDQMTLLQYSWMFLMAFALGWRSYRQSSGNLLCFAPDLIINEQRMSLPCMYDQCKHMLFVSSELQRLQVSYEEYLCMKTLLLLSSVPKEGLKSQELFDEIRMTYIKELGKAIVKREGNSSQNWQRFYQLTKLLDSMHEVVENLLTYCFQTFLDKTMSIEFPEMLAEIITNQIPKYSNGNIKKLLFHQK

Mus musculus = species: Mus musculus; experiment: Anti-inflammatory activity in mouse croton oil ear assay relative to clobetasol propionate; format: functional
Rattus norvegicus [1] = species: Rattus norvegicus; experiment: The thymolytic activity was measured relative to clobetasol propionate (CP=1) in rat granuloma pouch assay system; granuloma inhibition or thymolytic activity was not detected up to 100 ug/pouch; format: functional
[2] = It is the ratio of topical(edema inhibition) to systemic (thymolysis) activities.; format: functional
Rattus norvegicus [3] = species: Rattus norvegicus; experiment: The thymolytic activity was measured relative to clobetasol propionate (CP=1) in rat granuloma pouch assay system; format: functional

| IC50 (Glucocorticoid receptor) | Structure (SMILES) | Fold_activity (Mus musculus) | Thymolysis (Rattus norvegicus [1]) | Ratio [2] | Thymolysis (Rattus norvegicus [3]) |
| --- | --- | --- | --- | --- | --- |
|  | CSCC(=O)O[C@]1(C(=O)CCl)[C@@H](C)CC2C3CCC4=CC(=O)C=CC4(C)[C@@]3(F)[C@@H](O)CC21C (stereo not given in full) | 0.35 |  | 1 | 0.35 |
|  | C[C@H]1CC2C3CCC4=CC(=O)C=CC4(C)[C@@]3(F)[C@@H](O)CC2(C)[C@@]1(OC(=O)CCCCl)C(=O)CCl (stereo not given in full) | 0.66 |  | 5.5 | 0.12 |
|  | COCCC(=O)O[C@]1(C(=O)CCl)[C@@H](C)CC2C3CCC4=CC(=O)C=CC4(C)[C@@]3(F)[C@@H](O)CC21C (stereo not given in full) | 0.38 |  | 7.6 | 0.05 |
| > 150 nM | C[C@H]1CC2C3CCC4=CC(=O)C=CC4(C)[C@@]3(F)[C@@H](O)CC2(C)[C@@]1(OC(=O)CCC(=O)O)C(=O)CCl (stereo not given in full) | <0.01 |  |  |  |
|  | COC(=O)CCCC(=O)O[C@]1(C(=O)CCl)[C@@H](C)CC2C3CCC4=CC(=O)C=CC4(C)[C@@]3(F)[C@@H](O)CC21C (stereo not given in full) | 0.45 |  |  |  |
|  | C[C@H]1CC2C3CCC4=CC(=O)C=CC4(C)[C@@]3(F)[C@@H](O)CC2(C)[C@@]1(OC(=O)CC1CC1)C(=O)CCl (stereo not given in full) | 0.51 |  | 0.46 | 1.1 |
|  | CC(=O)OCCC(=O)O[C@]1(C(=O)CCl)[C@@H](C)CC2C3CCC4=CC(=O)C=CC4(C)[C@@]3(F)[C@@H](O)CC21C (stereo not given in full) | 0.28 |  | 18.6 | 0.015 |
| 3.17 nM | CCC(=O)O[C@]1(C(=O)CCl)[C@@H](C)C[C@H]2[C@@H]3CCC4=CC(=O)C=C[C@]4(C)[C@@]3(F)[C@@H](O)C[C@@]21C [CLOBETASOL PROPIONATE] | 1 |  | 1 | 1 |
|  | CCOC(=O)CCC(=O)O[C@]1(C(=O)CCl)[C@@H](C)CC2C3CCC4=CC(=O)C=CC4(C)[C@@]3(F)[C@@H](O)CC21C (stereo not given in full) | 0.56 |  |  |  |
|  | C[C@H]1CC2C3CCC4=CC(=O)C=CC4(C)[C@@]3(F)[C@@H](O)CC2(C)[C@@]1(OC(=O)C1CC1)C(=O)CCl (stereo not given in full) | 0.44 |  | 0.34 | 1.3 |
| 10.8 nM | C[C@H]1CC2C3CCC4=CC(=O)C=CC4(C)[C@@]3(F)[C@@H](O)CC2(C)[C@@]1(OC(=O)CCC(=O)OC(C)(C)C)C(=O)CCl (stereo not given in full) | 0.19 |  |  |  |
| 12.1 nM | CC(C)OC(=O)CCC(=O)O[C@]1(C(=O)CCl)[C@@H](C)CC2C3CCC4=CC(=O)C=CC4(C)[C@@]3(F)[C@@H](O)CC21C (stereo not given in full) | 0.11 |  |  |  |
|  | COCC(=O)O[C@]1(C(=O)CCl)[C@@H](C)CC2C3CCC4=CC(=O)C=CC4(C)[C@@]3(F)[C@@H](O)CC21C (stereo not given in full) | 0.11 |  |  |  |
|  | C[C@H]1CC2C3CCC4=CC(=O)C=CC4(C)[C@@]3(F)[C@@H](O)CC2(C)[C@@]1(OC(=O)CCl)C(=O)CCl (stereo not given in full) | 0.25 |  |  |  |
|  | CCC(=O)OCC(=O)[C@@]1(OC(=O)CC)[C@@H](C)C[C@H]2[C@@H]3CCC4=CC(=O)C=C[C@]4(C)[C@@]3(F)[C@@H](O)C[C@@]21C [BETAMETHASONE DIPROPIONATE] |  |  |  | 0.03 |
|  | C[C@H]1CC2C3CCC4=CC(=O)C=CC4(C)[C@@]3(F)[C@@H](O)CC2(C)[C@@]1(OC(=O)CCC#N)C(=O)CCl (stereo not given in full) | 0.07 |  |  |  |

| Structure (SMILES) | IC50 (Glucocorticoid receptor) | Fold_activity (Mus musculus) | Thymolysis (Rattus norvegicus [1]) | Ratio [2] | Thymolysis (Rattus norvegicus [3]) |
| --- | --- | --- | --- | --- | --- |
| COC(=O)CCC(=O)O[C@]1(C(=O)CCl)[C@@H](C)CC2C3CCC4=CC(=O)C=CC4(C)[C@@]3(F)[C@@H](O)CC21C (stereo not given in full) | 5.18 nM | 1.3 | < 0.01 | > 130 |  |
| CCOC(=O)CCCC(=O)O[C@]1(C(=O)CCl)[C@@H](C)CC2C3CCC4=CC(=O)C=CC4(C)[C@@]3(F)[C@@H](O)CC21C (stereo not given in full) | 9.68 nM | 0.68 |  |  |  |
